From paper PMC12435366, “Maleic anhydride derived diphosphines: adaptable chelators for receptor-targeted ^99mTc, ^64Cu and ^188Re radiotracers” (Chemical Science, 2025)

How the values were obtained:
[1] = tested on: PSMA-expressing DU145-PSMA+ prostate cancer cells; test: In vitro uptake of 99mTc tracers in DU145-PSMA+ cells; format: cell-based; details: for uptake in DU145-PSMA+ cells (% added radioactivity): 50 kBq purified tracer, 5 × 10^5 cells seeded per well, 37 °C, 1 h incubation, mean ± SD, biological triplicate; for blocking of cell uptake by PSMA inhibitor PMPA: co-incubation with PMPA
Method: (§1) To compare the relative uptake and specificity of the new radiotracers for PSMA, [^99mTcO2(DP^Ph-PSMAt)2]^+, [^99mTcO2(DP^An-PSMAt)2]^+ and [^99mTcO2(DP^MEP-PSMAt)2]^+ (50 kBq) were purified from unreacted ^99mTc precursors and excess DP-PSMAt peptide, and each incubated with PSMA-expressing DU145-PSMA+ prostate cancer cells[33] or LNCaP prostate cancer cells (5 × 10^5 cells). After 1 h incubation, uptake of each radiotracer was quantified. […]
(§2) 4.9 99mTc uptake in DU145, DU145-PSMA+ and LNCaP cells
(§3) The following experiment was performed in biological triplicate.
(§4) A panel of cell lines were selected that either expressed GCP(II)/PSMA (DU145-PSMA+ (genetically modified to express PSMA),12 and LNCaP (CRL‐1740)), or had low GCP(II)/PSMA expression (DU145 (HTB-81)). All cell lines were cultured in RPMI 1640 medium (R0883, Sigma) containing 10% foetal bovine serum, 2 mM L-glutamine, and 100 U mL−1 penicillin and 100 µg mL−1 streptomycin. Cells were maintained at 37 °C and 5% CO 2. Cells were seeded in 6-well plates at a density of 5 × 10^5 cells per well […]
in 2 mL complete media to achieve 70–80% confluency the following day. Prior to treating cells, cell medium (1 mL/well) was replaced. Solutions containing either [99mTcO2(DPPh-PSMAt)2]+, [99mTcO2(DPAn-PSMAt)2]+ or [99mTcO2(DPMEP-PSMAt)2]+ (50 kBq in 10 μL of PBS, >95% radiochemical purity) were added to each well, and the cells incubated at 37 °C for 1 h. Uptake studies were also performed after a 2 min incubation with the PSMA inhibitor 2 -(phosphonomethyl)pentane -1,5-dioic acid (PMPA; 30 µL of 750 µM PMPA solution/well). After 60 min incubation, the supernatant was removed, and the cells were washed with PBS solution (2 × 1 mL). The cells were lysed with ice cold radioimmunoprecipitation assay buffer (RIPA buffer, 500 μL; 150 mM sodium chloride, 0.1% w/w sodium dodecyl sulfate (SDS), 0.5% w/w sodium deoxycholate (NaDOC), 1% w/w Triton-X) and samples were collected for radioactivity counting. Results are depicted as means ± SD of independent biological experiments (performed on different days with different radiotracer preparations). […]
Biodistribution studies using 99mTc radiotracers were performed once a tumour had reached 150– 300 mm3 in volume (2–7 weeks after injection).
SCID/beige mice bearing DU145-PSMA+ prostate cancer tumour xenografts
SPECT/CT scanning and biodistribution studies: The 99mTc radiotracers (3.9–4.5 MBq, 3 mice per group, containing DPAn-PSMAt = 3.0 µg or DPMEP-PSMAt = 3.5 µg) were administered via tail vein injection under isoflurane anaesthesia. Following this, SPECT/CT scanning was carried out in one of two methods outlined below, to maintain 2 h biodistribution timepoints : i. The mouse was positioned on a single heated bed in a nanoScan SPECT/CT 80W scanner (Mediso Ltd., Budapest, Hungary) calibrated for 99mTc. A helical CT scan was acquired (50 kV X-ray source, 170 ms exposure time in 360 projections over 3 min). At 15 min post -injection, whole body SPECT scans were acquired (1 × 15 min, 3 × 30 min, conducted sequentially) with a frame time of 13 s and 26 s (using a 4-head scanner with 4 × 9 [1.4 mm] pinhole collimators

[2] = tested on: parental DU145 cells that do not express PSMA; test: In vitro uptake of 99mTc tracers in parental DU145 cells; format: cell-based; details: PSMA-negative DU145 cells, 1 h
Method: as §1, §2, §3, §4
in 2 mL complete media to achieve 70–80% confluency the following day. […] The cells were lysed with ice cold radioimmunoprecipitation assay buffer (RIPA buffer, 500 μL; 150 mM sodium chloride, 0.1% w/w sodium dodecyl sulfate (SDS), 0.5% w/w sodium deoxycholate (NaDOC), 1% w/w Triton-X) and samples were collected for radioactivity counting. […]

Row | SMILES | uptake in DU145-PSMA+ cells (% added radioactivity) [1] [%AR] | mean difference in uptake compared with [^99mTcO2(DP^MEP-PSMAt)2]^+ ([1]; DU145-PSMA+ cells, 1 h) [%AR] | mean difference in uptake compared with [^99mTcO2(DP^Ph-PSMAt)2]^+ ([1]; DU145-PSMA+ cells, 1 h) [%AR] | blocking of cell uptake by PSMA inhibitor PMPA ([1]; DU145-PSMA+ cells, 1 h) | uptake in parental DU145 cells [2]
1 | COc1ccc(P(/C(C(=O)O)=C(/C(=O)NCCOCCOCCOCCOCCC(=O)NCCCC[C@H](NC(=O)N[C@@H](CCC(=O)O)C(=O)O)C(=O)O)P(c2ccc(OC)cc2)c2ccc(OC)cc2)c2ccc(OC)cc2)cc1 [[^99mTcO2(DP^An-PSMAt)2]^+, metal not drawn] | 8.9 ± 2.1 | 6.2 | 6.5 | blocked | negligible uptake
2 | COCCOc1ccc(P(/C(C(=O)O)=C(/C(=O)NCCOCCOCCOCCOCCC(=O)NCCCC[C@H](NC(=O)N[C@@H](CCC(=O)O)C(=O)O)C(=O)O)P(c2ccc(OCCOC)cc2)c2ccc(OCCOC)cc2)c2ccc(OCCOC)cc2)cc1 [[^99mTcO2(DP^MEP-PSMAt)2]^+, metal not drawn] | 2.7 ± 0.8 | – | 12.7 | blocked | negligible uptake
